Conditions: for mass density: Liquid, Vibrating tube method; for specific volume: Gas, isochoric method

FC(F)(F)/C=C/Cl [(E)-1-chloro-3,3,3-trifluoroprop-1-ene]
Conditions | mass density [kg/m3] | specific volume [m3/kg]
283.14 K, 29999 kPa | 1358.6 | –
283.15 K, 133 kPa | 1297.8 | –
283.15 K, 500 kPa | 1298.7 | –
283.15 K, 5000 kPa | 1309.8 | –
283.15 K, 10000 kPa | 1321 | –
283.15 K, 15000 kPa | 1331.4 | –
283.15 K, 20000 kPa | 1341.1 | –
283.15 K, 35000 kPa | 1366.8 | –
283.16 K, 1000 kPa | 1300 | –
283.16 K, 2500 kPa | 1303.7 | –
283.16 K, 25000 kPa | 1350.1 | –
293.14 K, 499 kPa | 1275.3 | –
293.14 K, 1000 kPa | 1276.7 | –
293.14 K, 2500 kPa | 1280.9 | –
293.14 K, 5000 kPa | 1287.6 | –
293.14 K, 15000 kPa | 1311.3 | –
293.14 K, 20000 kPa | 1321.7 | –
293.14 K, 35000 kPa | 1349.2 | –
293.15 K, 151 kPa | 1274.3 | –
293.15 K, 9999 kPa | 1299.9 | –
293.15 K, 25000 kPa | 1331.4 | –
293.16 K, 30000 kPa | 1340.6 | –
303.15 K, 250 kPa | 1250.3 | –
303.15 K, 501 kPa | 1251.2 | –
303.15 K, 1001 kPa | 1252.7 | –
303.15 K, 2499 kPa | 1257.4 | –
303.15 K, 5000 kPa | 1264.8 | –
303.15 K, 35000 kPa | 1331.1 | –
303.16 K, 10001 kPa | 1278.4 | –
303.16 K, 15003 kPa | 1290.7 | –
303.16 K, 20002 kPa | 1301.9 | –
303.16 K, 25001 kPa | 1312.3 | –
303.16 K, 30000 kPa | 1322 | –
308.15 K, 167 kPa | – | 0.11
313.14 K, 35000 kPa | 1313.5 | –
313.15 K, 170 kPa | – | 0.1101
313.15 K, 351 kPa | 1225.4 | –
313.15 K, 501 kPa | 1226 | –
313.15 K, 1000 kPa | 1227.8 | –
313.15 K, 2500 kPa | 1233.1 | –
313.15 K, 5000 kPa | 1241.3 | –
313.15 K, 10000 kPa | 1256.4 | –
313.15 K, 15000 kPa | 1269.9 | –
313.15 K, 19999 kPa | 1282.1 | –
313.15 K, 25000 kPa | 1293.4 | –
313.15 K, 30000 kPa | 1303.8 | –
318.15 K, 174 kPa | – | 0.1101
323.15 K, 177 kPa | – | 0.1101
323.15 K, 274 kPa | – | 0.0684
323.15 K, 500 kPa | 1199.9 | –
323.15 K, 1000 kPa | 1202 | –
323.15 K, 2500 kPa | 1208 | –
323.15 K, 5000 kPa | 1217.4 | –
323.15 K, 10000 kPa | 1234.3 | –
323.15 K, 15000 kPa | 1249.2 | –
323.15 K, 19999 kPa | 1262.7 | –
323.15 K, 24999 kPa | 1274.9 | –
323.15 K, 30000 kPa | 1286.3 | –
323.15 K, 35000 kPa | 1296.8 | –
328.15 K, 180 kPa | – | 0.1101
328.15 K, 280 kPa | – | 0.0684
333.14 K, 2500 kPa | 1182 | –
333.14 K, 20000 kPa | 1242.9 | –
333.14 K, 25003 kPa | 1256.2 | –
333.14 K, 30002 kPa | 1268.3 | –
333.14 K, 35000 kPa | 1279.5 | –
333.15 K, 183 kPa | – | 0.1101
333.15 K, 285 kPa | – | 0.0684
333.15 K, 372 kPa | – | 0.0508
333.15 K, 500 kPa | 1172.6 | –
333.15 K, 1000 kPa | 1175.1 | –
333.15 K, 5000 kPa | 1192.7 | –
333.15 K, 10000 kPa | 1211.7 | –
333.15 K, 15001 kPa | 1228.2 | –
338.15 K, 186 kPa | – | 0.1102
338.15 K, 290 kPa | – | 0.0685
338.15 K, 380 kPa | – | 0.0509
338.15 K, 415 kPa | – | 0.0461
343.15 K, 189 kPa | – | 0.1102
343.15 K, 296 kPa | – | 0.0685
343.15 K, 387 kPa | – | 0.0509
343.15 K, 423 kPa | – | 0.0461
343.15 K, 458 kPa | – | 0.0419
343.15 K, 700 kPa | 1145 | –
343.15 K, 1000 kPa | 1146.6 | –
343.15 K, 2500 kPa | 1154.6 | –
343.15 K, 5000 kPa | 1166.8 | –
343.15 K, 10000 kPa | 1188.1 | –
343.15 K, 15000 kPa | 1206.2 | –
343.15 K, 20003 kPa | 1222.1 | –
343.15 K, 25000 kPa | 1236.4 | –
343.15 K, 30001 kPa | 1249.4 | –
343.15 K, 35002 kPa | 1261.5 | –
348.15 K, 192 kPa | – | 0.1102
348.15 K, 301 kPa | – | 0.0685
348.15 K, 394 kPa | – | 0.0509
348.15 K, 431 kPa | – | 0.0462
348.15 K, 468 kPa | – | 0.0419
348.15 K, 550 kPa | – | 0.0349
353.15 K, 195 kPa | – | 0.1102
353.15 K, 306 kPa | – | 0.0685
353.15 K, 401 kPa | – | 0.0509
353.15 K, 439 kPa | – | 0.0462
353.15 K, 477 kPa | – | 0.042
353.15 K, 562 kPa | – | 0.0349
353.15 K, 639 kPa | – | 0.0297
353.15 K, 801 kPa | 1114.4 | –
353.15 K, 1000 kPa | 1116.5 | –
353.15 K, 2500 kPa | 1125.4 | –
353.15 K, 5000 kPa | 1139.8 | –
353.15 K, 10000 kPa | 1163.9 | –
353.15 K, 15000 kPa | 1184.3 | –
353.15 K, 20000 kPa | 1201.7 | –
353.15 K, 25000 kPa | 1217.2 | –
353.15 K, 30000 kPa | 1231.2 | –
353.15 K, 34999 kPa | 1243.9 | –
358.15 K, 198 kPa | – | 0.1103
358.15 K, 311 kPa | – | 0.0685
358.15 K, 409 kPa | – | 0.0509
358.15 K, 447 kPa | – | 0.0462
358.15 K, 486 kPa | – | 0.042
358.15 K, 573 kPa | – | 0.0349
358.15 K, 654 kPa | – | 0.0297
363.14 K, 20001 kPa | 1180.8 | –
363.14 K, 35000 kPa | 1226.2 | –
363.15 K, 202 kPa | – | 0.1103
363.15 K, 316 kPa | – | 0.0685
363.15 K, 416 kPa | – | 0.0509
363.15 K, 455 kPa | – | 0.0462
363.15 K, 494 kPa | – | 0.042
363.15 K, 584 kPa | – | 0.0349
363.15 K, 667 kPa | – | 0.0297
363.15 K, 1200 kPa | 1085.8 | –
363.15 K, 2500 kPa | 1095.5 | –
363.15 K, 5000 kPa | 1112.1 | –
363.15 K, 10000 kPa | 1139.5 | –
363.15 K, 15001 kPa | 1161.9 | –
363.15 K, 25001 kPa | 1197.5 | –
363.15 K, 30000 kPa | 1212.5 | –
368.15 K, 205 kPa | – | 0.1103
368.15 K, 321 kPa | – | 0.0685
368.15 K, 423 kPa | – | 0.0509
368.15 K, 463 kPa | – | 0.0462
368.15 K, 503 kPa | – | 0.042
368.15 K, 594 kPa | – | 0.0349
368.15 K, 680 kPa | – | 0.0298
373.15 K, 208 kPa | – | 0.1103
373.15 K, 326 kPa | – | 0.0686
373.15 K, 430 kPa | – | 0.0509
373.15 K, 470 kPa | – | 0.0462
373.15 K, 512 kPa | – | 0.042
373.15 K, 605 kPa | – | 0.0349
373.15 K, 693 kPa | – | 0.0298
